Source: patent publication US10294202B2, “Pyrrolidinones as herbicides” (FMC Corporation, priority 2013, dated 2019)

Assays:
sedge, umbrella = assay: Test B flooded paddy test; type: in vivo, Cyperus difformis; settings: 250 g ai/ha, Flood; scale of 0 to 100 where 0 is no effect and 100 is complete control
Procedure, shortened: (§1)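 2-leaf plants; flood 3 cm over soil; compound into paddy water; depth held. Greenhouse 13–15 d. Visual rating vs controls, 0 (no effect) to 100 (complete control); dash = not tested.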

ducksalad = assay: Test B flooded paddy test; type: in vivo, Heteranthera limosa; settings: 250 g ai/ha, Flood; scale of 0 to 100 where 0 is no effect and 100 is complete control
Procedure, shortened: as §1

barnyardgrass = assay: Test B flooded paddy test; type: in vivo, Echinochloa crus-galli; settings: 250 g ai/ha, Flood; scale of 0 to 100 where 0 is no effect and 100 is complete control
Procedure, shortened: as §1

ryegrass, Italian = assay: Test C pre-/postemergence herbicide test; type: in vivo, Lolium multiflorum
Procedure, shortened: (§2)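 Response scores range from 0, meaning no effect, to 100, meaning complete control, assigned visually by comparison with controls roughly two weeks (13 to 15 days) after spraying. Applications were made preemergence to seeded loam–sand soil and postemergence to 1- to 4-leaf plants.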

wheat (winter wheat) = assay: Test C pre-/postemergence herbicide test; type: in vivo, Triticum aestivum
Procedure, shortened: as §2

galium = assay: Test C pre-/postemergence herbicide test; type: in vivo, Galium aparine; settings: Preemergence; for Galium plant response rating: 31 g ai/ha
Procedure, shortened: as §2

corn = assay: Test C pre-/postemergence herbicide test; type: in vivo, Zea mays
Procedure, shortened: as §2

lambsquarters = assay: Test C pre-/postemergence herbicide test; type: in vivo, Chenopodium album
Procedure, shortened: as §2

morningglory = assay: Test C pre-/postemergence herbicide test; type: in vivo, Ipomoea coccinea
Procedure, shortened: as §2

pigweed = assay: Test C pre-/postemergence herbicide test; type: in vivo, Amaranthus retroflexus
Procedure, shortened: as §2

ragweed = assay: Test C pre-/postemergence herbicide test; type: in vivo, Ambrosia elatior
Procedure, shortened: as §2

soybean = assay: Test C pre-/postemergence herbicide test; type: in vivo, Glycine max
Procedure, shortened: as §2

oat, wild = assay: Test C pre-/postemergence herbicide test; type: in vivo, Avena fatua
Procedure, shortened: as §2

[1] = Postemergence, 31 g ai/ha, scale 0 (no effect) to 100 (complete control)
[2] = Postemergence, 62 g ai/ha, scale 0 to 100 (0 no effect, 100 complete control)
[3] = Postemergence, 125 g ai/ha, scale 0 to 100 (0 no effect, 100 complete control)
[4] = Postemergence, 250 g ai/ha, scale 0 to 100 (0 no effect, 100 complete control)
[5] = Preemergence, 31 g ai/ha, scale 0 to 100, 0 is no effect and 100 is complete control
[6] = Preemergence, 62 g ai/ha, scale 0 to 100
[7] = Preemergence, 125 g ai/ha, scale 0 to 100 (0 no effect, 100 complete control)
[8] = 125 g ai/ha, scale 0 to 100 (0 no effect, 100 complete control)
[9] = scale 0 to 100 (0 no effect, 100 complete control)
[10] = 250 g ai/ha, scale 0 to 100 (0 no effect, 100 complete control)
[11] = Preemergence, 31 g ai/ha, scale 0 to 100 (0 no effect, 100 complete control)
[12] = Preemergence, 250 g ai/ha, scale 0 to 100 (0 no effect, 100 complete control)

O=C1NCC(c2ccccc2)C1C(=O)Nc1ccccc1F (racemic) [Compound 81]
Plant response rating, Sedge, Umbrella (sedge, umbrella): 0
Plant response rating, Ducksalad (ducksalad): 70
Plant response rating, Barnyardgrass (barnyardgrass): 20
Plant response rating, Ryegrass, Italian (ryegrass, Italian; [1]): 0
Plant response rating, Ryegrass, Italian (ryegrass, Italian; [2]): 0
Plant response rating, Ryegrass, Italian (ryegrass, Italian; [3]): 0
Plant response rating, Ryegrass, Italian (ryegrass, Italian; [4]): 0
Ryegrass, Italian plant response rating (ryegrass, Italian; [5]): 0
Plant response rating, Ryegrass, Italian (ryegrass, Italian; [6]): 0
Plant response rating, Ryegrass, Italian (ryegrass, Italian; [7]): 0
Plant response rating (scale of 0 to 100), Ryegrass, Italian (ryegrass, Italian; Preemergence, 250 g ai/ha): 0
Plant response rating, Wheat (wheat (winter wheat); [1]): 0
Plant response rating, Wheat (wheat (winter wheat); [2]): 0
Plant response rating, Wheat (wheat (winter wheat); [3]): 0
Plant response rating, Wheat (wheat (winter wheat); [4]): 0
Wheat plant response rating (wheat (winter wheat); [5]): 0
Plant response rating, Wheat (wheat (winter wheat); [6]): 0
Plant response rating, Wheat (wheat (winter wheat); [7]): 0
Plant response rating (scale of 0 to 100), Wheat (wheat (winter wheat); Preemergence, 250 g ai/ha): 0
Galium plant response rating (galium; scale 0 to 100, 0 is no effect and 100 is complete control): 0
Plant response rating, Galium (galium; 62 g ai/ha, scale 0 to 100): 0
Plant response rating, Galium (galium; [8]): 0
Plant response rating (scale of 0 to 100), Galium (galium; 250 g ai/ha): 0
Plant response rating, Corn (corn; [1]): 0
Plant response rating, Corn (corn; [2]): 0
Plant response rating, Corn (corn; [3]): 0
Plant response rating, Corn (corn; [4]): 0
Corn plant response rating (corn; [5]): 0
Plant response rating, Corn (corn; [6]): 0
Plant response rating, Corn (corn; [7]): 0
Plant response rating (scale of 0 to 100), Corn (corn; Preemergence, 250 g ai/ha): 0
Plant response rating, Lambsquarters (lambsquarters; [1]): 0
Plant response rating, Lambsquarters (lambsquarters; [2]): 0
Plant response rating, Lambsquarters (lambsquarters; [3]): 0
Plant response rating, Lambsquarters (lambsquarters; [4]): 3
Lambsquarters plant response rating (lambsquarters; [5]): 0
Plant response rating, Lambsquarters (lambsquarters; [6]): 0
Plant response rating, Lambsquarters (lambsquarters; [7]): 0
Plant response rating (scale of 0 to 100), Lambsquarters (lambsquarters; Preemergence, 250 g ai/ha): 27
Plant response rating, Morningglory (morningglory; [1]): 0
Plant response rating, Morningglory (morningglory; [2]): 0
Plant response rating, Morningglory (morningglory; [3]): 0
Plant response rating, Morningglory (morningglory; [4]): 0
Morningglory plant response rating (morningglory; [5]): 0
Plant response rating, Morningglory (morningglory; [6]): 0
Plant response rating, Morningglory (morningglory; [7]): 0
Plant response rating (scale of 0 to 100), Morningglory (morningglory; Preemergence, 250 g ai/ha): 0
Plant response rating, Pigweed (pigweed; [1]): 0
Plant response rating, Pigweed (pigweed; [2]): 0
Plant response rating, Pigweed (pigweed; [3]): 0
Plant response rating, Pigweed (pigweed; [4]): 0
Pigweed plant response rating (pigweed; [5]): 0
Plant response rating, Pigweed (pigweed; [6]): 0
Plant response rating, Pigweed (pigweed; [7]): 0
Plant response rating (scale of 0 to 100), Pigweed (pigweed; Preemergence, 250 g ai/ha): 0
Plant response rating, Ragweed (ragweed; [1]): 0
Plant response rating, Ragweed (ragweed; [2]): 0
Plant response rating, Ragweed (ragweed; [3]): 0
Plant response rating, Ragweed (ragweed; [4]): 0
Ragweed plant response rating (ragweed; [5]): 0
Plant response rating, Ragweed (ragweed; [6]): 0
Plant response rating, Ragweed (ragweed; [7]): 0
Plant response rating (scale of 0 to 100), Ragweed (ragweed; Preemergence, 250 g ai/ha): 0
Plant response rating, Soybean (soybean; [1]): 0
Plant response rating, Soybean (soybean; [2]): 3
Plant response rating, Soybean (soybean; [3]): 3
Plant response rating, Soybean (soybean; [4]): 8
Soybean plant response rating (soybean; [5]): 0
Plant response rating, Soybean (soybean; [6]): 0
Plant response rating, Soybean (soybean; [7]): 0
Plant response rating (scale of 0 to 100), Soybean (soybean; Preemergence, 250 g ai/ha): 0
Plant response rating, Oat, Wild (oat, wild; [1]): 0
Plant response rating, Oat, Wild (oat, wild; [2]): 0
Plant response rating, Oat, Wild (oat, wild; [3]): 0
Plant response rating, Oat, Wild (oat, wild; [4]): 0
Oat, Wild plant response rating (oat, wild; [5]): 0
Plant response rating, Oat, Wild (oat, wild; [6]): 0
Plant response rating, Oat, Wild (oat, wild; [7]): 0
Plant response rating (scale of 0 to 100), Oat, Wild (oat, wild; Preemergence, 250 g ai/ha): 0

O=C1NCC(c2ccc(Cl)c(F)c2)C1C(=O)Nc1ccccc1F (stereo not drawn) [Compound 53]
Plant response rating, Sedge, Umbrella (sedge, umbrella): 20
Plant response rating, Ducksalad (ducksalad): 100
Plant response rating, Barnyardgrass (barnyardgrass): 0
Plant response rating, Ryegrass, Italian (ryegrass, Italian; [6]): 0
Plant response rating, Ryegrass, Italian (ryegrass, Italian; [7]): 0
Plant response rating, Wheat (wheat (winter wheat); [6]): 0
Plant response rating, Wheat (wheat (winter wheat); [7]): 0
Galium plant response rating (galium; [9]): 0
Plant response rating, Galium (galium; 62 g ai/ha, scale 0 to 100): 0
Plant response rating, Galium (galium; [8]): 0
Plant response rating, Galium (galium; [10]): 70
Corn plant response rating (corn; [11]): 10
Plant response rating, Corn (corn; [6]): 20
Plant response rating, Corn (corn; [7]): 20
Plant response rating, Corn (corn; [12]): 20
Plant response rating, Lambsquarters (lambsquarters; [6]): 0
Plant response rating, Lambsquarters (lambsquarters; [7]): 40
Plant response rating, Morningglory (morningglory; [6]): 0
Plant response rating, Morningglory (morningglory; [7]): 0
Plant response rating, Pigweed (pigweed; [6]): 25
Plant response rating, Pigweed (pigweed; [7]): 25
Plant response rating, Ragweed (ragweed; [6]): 10
Plant response rating, Ragweed (ragweed; [7]): 10
Plant response rating, Soybean (soybean; [6]): 15
Plant response rating, Soybean (soybean; [7]): 15
Plant response rating, Oat, Wild (oat, wild; [6]): 0
Plant response rating, Oat, Wild (oat, wild; [7]): 0

O=C1NCC(c2ccc(F)c(Cl)c2)C1C(=O)Nc1cccc(F)c1F (stereo not drawn) [Compound 59]
Plant response rating, Sedge, Umbrella (sedge, umbrella): 60
Plant response rating, Ducksalad (ducksalad): 75
Plant response rating, Barnyardgrass (barnyardgrass): 40
Plant response rating, Ryegrass, Italian (ryegrass, Italian; [6]): 0
Plant response rating, Ryegrass, Italian (ryegrass, Italian; [7]): 0
Plant response rating, Wheat (wheat (winter wheat); [6]): 0
Plant response rating, Wheat (wheat (winter wheat); [7]): 0
Galium plant response rating (galium; [9]): 0
Plant response rating, Galium (galium; 62 g ai/ha, scale 0 to 100): 5
Plant response rating, Galium (galium; [8]): 30
Plant response rating, Galium (galium; [10]): 85
Corn plant response rating (corn; [11]): 0
Plant response rating, Corn (corn; [6]): 10
Plant response rating, Corn (corn; [7]): 10
Plant response rating, Corn (corn; [12]): 45
Plant response rating, Lambsquarters (lambsquarters; [6]): 0
Plant response rating, Lambsquarters (lambsquarters; [7]): 0
Plant response rating, Morningglory (morningglory; [6]): 0
Plant response rating, Morningglory (morningglory; [7]): 15
Plant response rating, Pigweed (pigweed; [6]): 35
Plant response rating, Ragweed (ragweed; [6]): 0
Plant response rating, Ragweed (ragweed; [7]): 0
Plant response rating, Soybean (soybean; [6]): 15
Plant response rating, Soybean (soybean; [7]): 20
Plant response rating, Oat, Wild (oat, wild; [6]): 0
Plant response rating, Oat, Wild (oat, wild; [7]): 0
